Measured values from patent publication US4747845A, “Synthetic resin matrix system for the extended delivery of drugs” (priority 1986, dated 1988).

Key:
[1] = dog, in vivo
Method: The derived pharmacokinetic parameters included: 1, time for the maximum concentration to be reduced by 1/2 (t-1/2); 2, area under the plasma concentration curve (AUC); 3, maximum plasma concentration (C-max); 4, time to reach C-max (t-max); 5, mean resident time (MRT); and 6, percent of recovery of administered H3 dose in urine in 72 hours (U%).
Here, determination was made of the release characteristics of the DIMAC synthetic resin matrix system embodied with the drug urapidil fumerate (UPD) following oral administration to conscious dogs, in an identical procedure to that described in EXAMPLE 4.
The UPD dose administered in DIMAC matrix was 10 mg/kg, and the same dose was used in the control solution.

[2] = dog, in vivo, po
Method: Approximately 75 uCi of isotopically labelled DTZ or UPD was blended into their respective slurry prior to filling the gelatin capsule. The isotopically labelled compositions were allowed to set-up prior to rejoining the filled upper and lower capsule compartments. Curing proceeded overnight, with animal dosing performed at 8:00 a.m. the following morning. The control DIMAC matrix samples without drug were prepared in an identical manner.
Six conscious dogs, three males and three females, one of each sex in three treatment groups were used in this study. The oral dose of DTZ was 30 mg/kg, while that for UPD was 10 mg/kg.
Blood samples were drawn at 0-time immediately prior to dosing, and at 0.5, 1.0, 2.0, 4.0, 6.0, 8.0, 24, and 32 hours after oral administration of the three test preprations. One ml of plasma, suitably prepared was counted for 5-minutes for level of radioactivity (dpm).

magnitude of delayed and extended duration release indices compared with EXAMPLE 3 [1] | percent change of t1/2 of DIMAC from solution control [1] | percent change of U % (recovery of administered dose in urine in 72 hours) of DIMAC from solution control ([1]; 4320 min) | percent of dose released from DIMAC matrix during the 8-hour period [2] | time of peak plasma radioactivity ([2]; 10 mg/kg) | Substance | statistical significance of change over solution control [1]
far less | +40% | +8% |  |  | urapidil fumerate [DIMAC matrix UPD] | statistically significant change in C-max, t-max, MRT, and t-1/2
 |  |  | at least 50% | 2 h | urapidil fumerate [UPD] | 
